Assay results reported in patent publication US20230286925A1, “PHENYL TRIAZOLE MLL1-WDR5 PROTEIN-PROTEIN INTERACTION INHIBITOR” (HUYABIO International, LLC, priority 2022, published 2023).
Like-named read-outs stand apart in the source and are kept apart here.

Tests used:
[1] = biological target: MLL1-WDR5 protein-protein interaction (Homo sapiens (Human), UniProt P61964); assay: WDR5 TR-FRET assay of inhibition against MLL1-WDR5 protein-protein interaction; assay type: binding
Description: WDR5 TR-FRET Assay Procedure: Stock compounds were transferred to the assay plate by Echo Liquid Handler. Reactions were performed in the assay buffer (1×PBS, 300 mM NaCl, 0.5 mM TCEP, 0.1% CHAPS) containing 5 nM WDR5 protein, 10 nM peptide (Ac-ARTEVHLRKS-[Ahx-Ahx] [C]-Alexa Fluor 488-NH2) and 0.25 nM Tb-anti His antibody (Tb-Ab) in 384-well white plate (PerkinElmer) with a final volume of 20 μl. Compounds were incubated with WDR5 protein for 30 min at room temperature. Plates were covered, protected from light and incubated for 60 min at room temperature after adding the peptide and Tb-Ab. EnVision Multimode Plate Reader (PerkinElmer) was used for the TR-FRET assay with excitation wavelength at 340 nm and emission wavelength at 495 and 520 nm. The ratio of the 520/495 wavelengths were used to assess the degree of the FRET signal. IC50 was calculated by fitting the inhibition data using XLfit software to sigmoidal dose-response model.
Biphenyl compound DDO-2084 was reported to be a small molecule inhibitor that can inhibit MLL1-WDR5 protein-protein interaction, reduce MLL1 enzyme catalytic activity, and downregulate the expression of Hox and Meis-1 genes (Eur. J. Med. Chem. 2016, 124, 480-489). DDO-2084 is used as a positive control compound.

MV-411 cells = assay: Anti-proliferative activity against leukemia cells (CellTiterGlo viability, 72 hrs); assay type: cell-based; conditions: MV4-11, MV-411 human acute monocytic leukemia cell
Description: Procedure: MV-411 or Molm-13 cells were seeded into 384 well plates at 2000 cells/well density in 50 uL according plate map and were allowed to naturally sediment by waiting about 30 min in Clean Bench. Next, plated cells were centrifuged for 1 min at 1000 rpm and the excess cells were transferred into the flasks for further culture. Cells in the assay plates were incubated (at least 4 hrs) at 37° C., 5% CO2 for next process followed by adding the compounds as the plate map indicated. The tests were performed in duplicates with treatment of compounds at 10 pts 3 fold titration in 384 well plates. Taxol was as positive control while DMSO as negative control. To rule out edge effect, the wells on the edge were not seeded and therefore one 384 well plate holds 13 compounds. Cells viability was measured 72 hrs after incubation with compounds and using CellTiterGlo (promega) viability assay according to manufactory's instruction to check the ATP production in each well.
Experiments on anti-proliferative activity against leukemia cells were conducted with some of the compounds of the invention.

[2] = Table 7, read-out: WDR5 TR-FRET Assay (IC50 nM)
[3] = WDR5 TR-FRET, 5 nM WDR5 protein, 10 nM peptide, read-out: MLL1-WDR5 PPI inhibitory activity

| Structure (SMILES) | IC50 [1, 2] [nM] | GI50 (MV-411 cells; Table 7) [µM] | IC50 [1, 3] [nM] | GI50 (MV-411 cells; Table 6) [µM] |
| --- | --- | --- | --- | --- |
| C[C@@H]1CN(c2cc(F)c(-c3cnc(N4CCOCC4)nc3)cc2Nc2ncnc(Cl)c2N)C[C@H](C)N1C [DDO-2213_021, 6-chloro-N4-(4-fluoro-5-(2-morpholinopyrimidin-5-yl)-2-((3S,5R)-3,4,5-trimethylpiperazin-1-yl)phenyl)pyrimidine-4,5-diamine] | 23.4 | 9.01 |  |  |
| C[C@@H]1CN(c2cc(F)c(-c3ccc(OCC4CC4)nc3)cc2Nc2ncnc(Cl)c2N)C[C@H](C)N1C [DDO-2213_022, 6-chloro-N4-(5-(6-(cyclopropylmethoxy)pyridin-3-yl)-4-fluoro-2-((3S,5R)-3,4,5-trimethylpiperazin-1-yl)phenyl)pyrimidine-4,5-diamine] | 41.2 | 3.68 |  |  |
| C[C@@H]1CN(c2ncc(-c3cc(Nc4ncnc(Cl)c4N)c(N4CCN(C)[C@@H](C)C4)cc3F)cn2)C[C@H](C)O1 [DDO-2213_023, 6-chloro-N4-(5-(2-((2S,6R)-2,6-dimethylmorpholino)pyrimidin-5-yl)-2-((S)-3,4-dimethylpiperazin-1-yl)-4-fluorophenyl)pyrimidine-4,5-diamine] | 3.56 | 2.79 |  |  |
| C[C@@H]1CN(c2cc(F)c(-c3ccnc(N4CCOCC4)n3)cc2Nc2ncnc(Cl)c2N)C[C@H](C)N1C [DDO-2213_024, 6-chloro-N4-(4-fluoro-5-(2-morpholinopyrimidin-4-yl)-2-((3S,5R)-3,4,5-trimethylpiperazin-1-yl)phenyl)pyrimidine-4,5-diamine] | 15 | 18.5 |  |  |
| C[C@@H]1CN(c2cc(F)c(C3=CCCN(c4ncc(CN5CCOCC5)cn4)C3)cc2Nc2ncnc(Cl)c2N)C[C@H](C)N1C [DDO-2213_026, 6-chloro-N^4-(4-fluoro-5-(1-(5-(morpholinomethyl)pyrimidin-2-yl)-1,2,5,6-tetrahydropyridin-3-yl)-2-((3S,5R)-3,4,5-trimethylpiperazin-1-yl)phenyl)pyrimidine-4,5-diamine] | 18.6 | 12.7 |  |  |
| CC(C)N1CCN(c2ncc(-c3cc(Nc4ncnc(Cl)c4N)c(N4C[C@@H](C)N(C)[C@@H](C)C4)cc3F)cn2)CC1 [DDO-2213_027, 6-chloro-N4-(4-fluoro-5-(2-(4-isopropylpiperazin-1-yl)pyrimidin-5-yl)-2-((3S,5R)-3,4,5-trimethylpiperazin-1-yl)phenyl)pyrimidine-4,5-diamine] | 31.3 | 6.56 |  |  |
| C[C@@H]1CN(c2cc(F)c(-c3ccnc(N(C)C)n3)cc2Nc2ncnc(Cl)c2N)C[C@H](C)N1C [DDO-2213_028, 6-chloro-N4-(5-(2-(dimethylamino)pyrimidin-4-yl)-4-fluoro-2-((3S,5R)-3,4,5-trimethylpiperazin-1-yl)phenyl)pyrimidine-4,5-diamine] | 51.8 | > 200 |  |  |
| C[C@@H]1CN(c2cc(F)c(-c3ccnc(N4CCO[C@@H](C)C4)n3)cc2Nc2ncnc(Cl)c2N)C[C@H](C)N1C [DDO-2213_029, 6-chloro-N4-(4-fluoro-5-(2-((S)-2-methylmorpholino)pyrimidin-4-yl)-2-((3S,5R)-3,4,5-trimethylpiperazin-1-yl)phenyl)pyrimidine-4,5-diamine] | 12.9 | 17.2 |  |  |
| C[C@@H]1CN(c2ccc(-c3cc(CNC4CCCCC4)ccc3F)cc2Nc2ncnc(Cl)c2N)C[C@H](C)N1C [DDO-2213_030, 6-chloro-N4-(5′-((cyclohexylamino)methyl)-2′-fluoro-4-((3S,5R)-3,4,5-trimethylpiperazin-1-yl)-[1,1′-biphenyl]-3-yl)pyrimidine-4,5-diamine] | 418 | 2.43 |  |  |
| Cc1c(F)c(N)cc(C(=O)Nc2cc(-n3cc(C(=O)OCC(C)C)nn3)ccc2N2CCN(C)CC2)c1Cl [HYBI_003, isobutyl 1-(3-(5-amino-2-chloro-4-fluoro-3-methylbenzamido)-4-(4-methylpiperazin-1-yl)phenyl)-1H-1,2,3-triazole-4-carboxylate] |  |  | 15.6 | 3.41 |
| COc1ccc(COC(=O)c2cn(-c3ccc(N4CCN(C)CC4)c(NC(=O)c4cc(N)c(F)c(C)c4Cl)c3)nn2)cc1 [HYBI_010] |  |  | 9.62 | 5.95 |
| CCOC(=O)[C@H](C)OC(=O)c1cn(-c2ccc(N3CCN(C)CC3)c(NC(=O)c3cc(N)c(F)c(C)c3Cl)c2)nn1 [HYBI_013] |  |  | 19.4 | 2.46 |
| Cc1c(F)c(N)cc(C(=O)Nc2cc(-n3cc(C(=O)OCC4CCN(C)CC4)nn3)ccc2N2CCN(C)CC2)c1Cl [HYBI_016] |  |  | 20.6 | 7.1 |
| Cc1c(F)c(N)cc(C(=O)Nc2cc(-n3cc(C(=O)OC4(C)CCC4)nn3)ccc2N2CCN(C)CC2)c1Cl [HYBI_018] |  |  | 16.8 | 5.99 |
| Cc1c(F)c(N)cc(C(=O)Nc2cc(-n3cc(C(=O)N(C)CCCO)nn3)ccc2N2CCN(C)CC2)c1Cl [HYBI_019A] |  |  | 17.1 | 24.9 |
| Cc1c(F)c(N)cc(C(=O)Nc2cc(-n3cc(C(=O)N(C)CCCN4CCOCC4)nn3)ccc2N2CCN(C)CC2)c1Cl [HYBI_019] |  |  | 20.4 | 27.1 |
| Cc1c(F)c(N)cc(C(=O)Nc2cc(-n3cc(C(=O)NCCCN4CCOCC4)nn3)ccc2N2CCN(C)[C@@H](C)C2)c1Cl [HYBI_020] |  |  | 8.23 | 8.36 |
| Cc1c(F)c(N)cc(C(=O)Nc2cc(-n3cc(C(=O)NCCCN4CCOCC4)nn3)ccc2N2C[C@@H](C)N(C)[C@@H](C)C2)c1Cl [HYBI_021] |  |  | 7.09 | 25.1 |
| Cc1c(F)c(N)cc(C(=O)Nc2cc(-n3cc(C(=O)NCCCN4CCOCC4)nn3)ccc2N2CCCN(C)CC2)c1Cl [HYBI_022] |  |  | 62.3 | 17.2 |
| Cc1c(F)c(N)cc(C(=O)Nc2cc(-n3cc(C(=O)NCCCN4CCOCC4)nn3)c(F)cc2N2CCN(C)CC2)c1Cl [HYBI_023] |  |  | 19.8 | 32 |
| Cc1c(F)c(N)cc(C(=O)Nc2cc(-n3cc(C(=O)NCCCN4CCOCC4)nn3)c(F)cc2N2CCN(C)C(C)C2)c1Cl (stereo not shown) [HYBI_027] |  |  | 10.8 | 20 |
| Cc1c(F)c(N)cc(C(=O)Nc2cc(-n3cc(C(=O)NCCCN4CCOCC4)nn3)c(F)cc2N2C[C@@H](C)N(C)[C@@H](C)C2)c1Cl [HYBI_028] |  |  | 5.24 | 30.9 |
| Cc1cc(C(=O)Nc2cc(-n3cc(C(=O)NCCCN4CCOCC4)nn3)ccc2N2CCN(C)CC2)cc(C)c1F [HYBI_037] |  |  | 109 | 8.38 |
| Cc1c(F)ccc(C(=O)Nc2cc(-n3cc(C(=O)NCCCN4CCOCC4)nn3)ccc2N2CCN(C)CC2)c1Cl [HYBI_038] |  |  | 185 | 17.5 |
| Cc1c(F)c([N+](=O)[O-])cc(C(=O)Nc2cc(-n3cc(C(=O)NCCCN4CCOCC4)nn3)ccc2N2CCN(C)CC2)c1Cl [HYBI_039] |  |  | 131 | 0.108 |
| CN1CCN(c2ccc(-n3cc(C(=O)NCCCN4CCOCC4)nn3)cc2NC(=O)c2ccc(F)c([N+](=O)[O-])c2)CC1 [HYBI_040] |  |  | 828 | 0.21 |
| CN1CCN(c2ccc(-n3cc(C(=O)NCCCN4CCOCC4)nn3)cc2NC(=O)c2ccc(F)c(C(F)(F)F)c2)CC1 [HYBI_042] |  |  | 802 | 4.75 |
| Cc1cc(C)cc(C(=O)Nc2cc(-n3cc(C(=O)NCCCN4CCOCC4)nn3)ccc2N2CCN(C)CC2)c1 [HYBI_044] |  |  | 903 | 64.8 |
| CN1CCN(c2ccc(-n3cc(C(=O)NCCCN4CCOCC4)nn3)cc2NC(=O)c2cc(Cl)cc(Cl)c2)CC1 [HYBI_045] |  |  | 384 | 4.15 |
